Laboratory results: the NIST ThermoML archive (doi:10.1016/j.jct.2008.05.005)

Assay: xn = mol fraction of the nth substance listed
Details: Liquid, Vibrating tube method

CCCCn1cc[n+](C)c1.F[B-](F)(F)F [1-butyl-3-methylimidazolium tetrafluoroborate] + CO
mass density [kg/m3]
Details	298.15 K	323.15 K
210 kPa, x1 = 0.9102	1203.93	–
230 kPa, x1 = 0.9102	–	1185.2
240 kPa, x1 = 0.0087	–	781
240 kPa, x1 = 0.2626	1065.61	–
240 kPa, x1 = 0.7501	–	1168.14
250 kPa, x1 = 0.4988	1144.91	–
260 kPa, x1 = 0.1302	–	952.36
300 kPa, x1 = 0.1302	975.12	–
310 kPa, x1 = 0.7501	1186.96	–
380 kPa, x1 = 0.0087	804.76	–
400 kPa, x1 = 0.0433	867.22	–
440 kPa, x1 = 0.0433	–	844.94
670 kPa, x1 = 0.2626	–	1046.2
780 kPa, x1 = 0.4988	–	1126.41
4380 kPa, x1 = 0.0087	808.51	–
5040 kPa, x1 = 0.9102	1206.16	1187.61
5070 kPa, x1 = 0.7501	–	1170.7
5080 kPa, x1 = 0.7501	1189.2	–
5210 kPa, x1 = 0.2626	1068.88	–
5270 kPa, x1 = 0.0433	871.22	–
5310 kPa, x1 = 0.4988	1147.71	1128.87
5320 kPa, x1 = 0.2626	–	1049.53
5430 kPa, x1 = 0.0433	–	849.82
5440 kPa, x1 = 0.0087	–	786.6
5890 kPa, x1 = 0.1302	979.15	–
6310 kPa, x1 = 0.1302	–	957.29
10030 kPa, x1 = 0.7501	1191.5	–
10030 kPa, x1 = 0.9102	1208.41	1190.07
10050 kPa, x1 = 0.4988	1150.25	–
10080 kPa, x1 = 0.2626	1071.94	–
10260 kPa, x1 = 0.0433	875.17	–
10840 kPa, x1 = 0.1302	982.54	–
10910 kPa, x1 = 0.0087	814.38	–
15190 kPa, x1 = 0.0433	878.92	–
15310 kPa, x1 = 0.9102	1210.74	–
15330 kPa, x1 = 0.0087	818.18	–
15380 kPa, x1 = 0.2626	1075.12	–
15420 kPa, x1 = 0.7501	1193.96	–
15620 kPa, x1 = 0.4988	1153.13	–
15680 kPa, x1 = 0.1302	985.71	–
19940 kPa, x1 = 0.0087	821.99	–
20020 kPa, x1 = 0.0433	882.44	–
20070 kPa, x1 = 0.9102	1212.8	–
20140 kPa, x1 = 0.4988	1155.39	–
20750 kPa, x1 = 0.2626	1078.17	–
20890 kPa, x1 = 0.7501	1196.42	–
20920 kPa, x1 = 0.1302	988.97	–
25090 kPa, x1 = 0.2626	1080.52	–
25120 kPa, x1 = 0.1302	991.46	–
25410 kPa, x1 = 0.4988	1157.92	–
25410 kPa, x1 = 0.9102	1215.05	–
25420 kPa, x1 = 0.0433	886.2	–
25680 kPa, x1 = 0.7501	1198.54	–
25770 kPa, x1 = 0.0087	826.59	–
30080 kPa, x1 = 0.0433	889.29	–
30080 kPa, x1 = 0.7501	1200.46	–
30090 kPa, x1 = 0.9102	1216.97	–
30120 kPa, x1 = 0.2626	1083.1	–
30410 kPa, x1 = 0.4988	1160.24	–
30520 kPa, x1 = 0.0087	830.16	–
31070 kPa, x1 = 0.1302	994.78	–
35070 kPa, x1 = 0.2626	1085.49	–
35290 kPa, x1 = 0.7501	1202.69	–
35420 kPa, x1 = 0.0433	892.67	–
35560 kPa, x1 = 0.1302	997.14	–
35740 kPa, x1 = 0.0087	833.9	–
35740 kPa, x1 = 0.4988	1162.61	–
39560 kPa, x1 = 0.0433	895.16	–
39780 kPa, x1 = 0.4988	1164.34	–
39880 kPa, x1 = 0.0087	836.72	–
39910 kPa, x1 = 0.7501	1204.65	–
39910 kPa, x1 = 0.9102	1220.87	–
39930 kPa, x1 = 0.9102	1220.88	–
39960 kPa, x1 = 0.2626	1087.71	–
40120 kPa, x1 = 0.1302	999.4	–
